30 compounds from patent US12275729B2 (Merck Sharp & Dohme LLC, priority 2017, dated 2025) can be followed below.

pIC50: −log10 of the molar value.

IDO1, sequence (P14902 whole entry): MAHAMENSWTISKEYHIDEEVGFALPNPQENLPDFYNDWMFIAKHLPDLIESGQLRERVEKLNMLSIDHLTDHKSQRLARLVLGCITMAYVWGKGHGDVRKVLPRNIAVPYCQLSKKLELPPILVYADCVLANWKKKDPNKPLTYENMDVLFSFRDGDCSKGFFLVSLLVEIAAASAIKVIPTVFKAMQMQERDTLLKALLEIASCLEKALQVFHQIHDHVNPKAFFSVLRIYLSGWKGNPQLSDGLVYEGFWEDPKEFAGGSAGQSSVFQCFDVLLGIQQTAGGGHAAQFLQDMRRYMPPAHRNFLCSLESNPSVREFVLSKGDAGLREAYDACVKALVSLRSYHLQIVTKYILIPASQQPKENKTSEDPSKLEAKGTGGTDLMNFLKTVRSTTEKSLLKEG

The target in the first assay is IDO1 (Homo sapiens, UniProt P14902). The assay can be described thus: IDO1 Cellular Assay in HeLa Cells Stimulated with IFNγ. It counts as cell-based. The conditions noted are these: about 48 hours, read-out: Hela IC50. As for the experimental part:
Biological Assays IDO1 Cellular Assay in HeLa Cells Stimulated with IFNγ
HeLa cells were cultured in complete HeLa culture medium (90% EMEM, 10% heat-inactivated fetal bovine serum) and expanded to about 1×10^9 cells. The cells were then collected and frozen down at 1×10^7 cells/vial in 1 mL frozen medium (90% complete HeLa culture medium, 10% DMSO).
Compounds to be tested were serially diluted in ten 3-fold steps in DMSO starting from 10 mM DMSO stocks in Echo low volume plate(s).
Frozen HeLa cells were thawed and transferred into HeLa assay medium (99% complete HeLa culture medium, 1% Pen/Strep) with 20 mL medium/vial of cells. The cells were spun down at 250 g in a table top centrifuge for 5 min and suspended in same volume of HeLa assay medium. The cells were then counted and adjusted to a density of 2×10^5 cells/mL in HeLa assay medium. Sterile L-tryptophan were added to the cells with final concentration of 300 uM L-tryptophan. A small aliquot (2 mL/plate) of HeLa cells were set aside and were not treated with IFNγ, to serve as the Max-E control.
HeLa cells with and without IFNγ were dispensed to the respective wells of 384-well assay plates containing the compounds. The plates were incubated for about 48 hours at a 37° C., 5% CO2 incubator. Afterwards, 12 μL of 0.5 M methyl isonipecotate in dimethyl sulfoxide were added into each well and the plates were sealed and incubated at 37° C. without CO2 overnight. The plates were centrifuged for 1 min at 200×g. The resulting fluorescence was measured in a Spectramax plate reader (Molecular Devices) with a 400 nm excitation filter and a 510 nm emission filter.
Potencies were calculated by […] least squares fit to the four parameter logistic IC50 equation.
As a reminder, the pIC50 is −log10 of the IC50, conventionally taken in molar units. Take `O=C(N1CCCC1)N1CCCc2cc(C3(C(=O)Nc4ccc(F)cn4)CCC3)ccc21` [Example 103, N-(5-fluoropyridin-2-yl)-1-[1-(pyrrolidine-1-carbonyl)-1,2,3,4-tetrahydroquinolin-6-yl]cyclobutane-1-carboxamide]: the pIC50 is 7.12.
On to `CC(C)CC(=O)N1CCCc2cc(CC(=O)Nc3ccc(Cl)cc3)ccc21` [Example 35, N-(4-chlorophenyl)-2-(1-(3-methylbutanoyl)-1,2,3,4-tetrahydroquinolin-6-yl)acetamide], for which the pIC50 is 8.16.
Same read-out and setting: next, `CN(C)C(=O)N1CCCc2cc(C3(C(=O)Nc4ccc(F)cn4)CCC3)ccc21` [Example 102, 6-{1-[(5-fluoropyridin-2-yl)carbamoyl]cyclobutyl}-N,N-dimethyl-3,4-dihydroquinoline-1(2H)-carboxamide]: 6.83; `Cc1n[nH]c(C(=O)N2CCCc3cc(C4(C(=O)Nc5ccc(F)cc5)CCC4)ccc32)n1` [Example 109, N-(4-fluorophenyl)-1-[1-(3-methyl-1H-1,2,4-triazole-5-carbonyl)-1,2,3,4-tetrahydroquinolin-6-yl]cyclobutane-1-carboxamide]: 7.79.
Same read-out and setting: next, `C[C@@H](C(=O)Nc1ccc(F)cn1)c1ccc2c(c1)CCCN2C(=O)C1(F)CC1` (single isomer, unassigned) [Example 62]: 6.28.
Same read-out and setting: under `COC(=O)N1CCCc2nc(C3(C(=O)Nc4ccc(F)cc4)CCC3)ccc21` [Example 216, methyl 6-{1-[(4-fluorophenyl)carbamoyl]cyclobutyl}-3,4-dihydro-1,5-naphthyridine-1(2H)-carboxylate] stands 8.82.
For `Cc1nc(C(=O)N2CCCc3cc([C@@H](C)C(=O)Nc4ccc(F)cn4)ccc32)no1` [Example 64, (2R)-N-(5-fluoropyridin-2-yl)-2-[1-(5-methyl-1,2,4-oxadiazole-3-carbonyl)-1,2,3,4-tetrahydroquinolin-6-yl]propanamide], the pIC50 is 7.35.
For the compound `COC(=O)N1CCCc2cc(C3(C(=O)Nc4ccc(F)cn4)CCC3)ccc21` [Example 206, methyl 6-{1-[(5-fluoropyridin-2-yl)carbamoyl]cyclobutyl}-3,4-dihydroquinoline-1(2H)-carboxylate], the negative logarithm of the IC50 (pIC50) is 8.82.
The same measure, in the same setting: next, `CC(C(=O)Nc1ccc(F)cc1)c1ccc2c(c1)CCCN2Cc1cccc(Cl)c1` (single isomer, unassigned) [Example 226, 2-{1-[(3-chlorophenyl)methyl]-1,2,3,4-tetrahydroquinolin-6-yl}-N-(4-fluorophenyl)propanamide]: 7.36; `O=C(Nc1ccc(F)cc1)C1(c2ccc3c(n2)CCN3c2ccccn2)CCC1` [Example 271, N-(4-fluorophenyl)-1-[1-(pyridin-2-yl)-2,3-dihydro-1H-pyrrolo[3,2-b]pyridin-5-yl]cyclobutane-1-carboxamide]: 7.96.
Still for that read-out and setting: next, `O=C(NC1(c2ccc3c(n2)CCCN3C(=O)C2CC2)CCC1)c1ccc(Cl)cc1` [Example 183, 4-chloro-N-{1-[5-(cyclopropanecarbonyl)-5,6,7,8-tetrahydro-1,5-naphthyridin-2-yl]cyclobutyl}benzamide]: 8.28; `Cc1nccc(N2CCCc3nc(C4(NC(=O)c5ccc(F)c(F)c5)CC4)ccc32)n1` [Example 302, 3,4-difluoro-N-(1-(5-(2-methylpyrimidin-4-yl)-5,6,7,8-tetrahydro-1,5-naphthyridin-2-yl)cyclopropyl)benzamide]: 8.53; `CC(NC(=O)c1ccc(F)cc1)c1ccc2c(n1)CCCN2C(=O)C1(C)CCCCO1` (stereo not drawn) [Example 136, 4-fluoro-N-{1-[5-(2-methyloxane-2-carbonyl)-5,6,7,8-tetrahydro-1,5-naphthyridin-2-yl]ethyl}benzamide]: 6.27.
Take `CC(C(=O)Nc1ccc(F)cc1)c1ccc2c(n1)CCCN2C(=O)C1CCOCC1` (stereo not drawn) [Example 166, N-(4-fluorophenyl)-2-[5-(oxane-4-carbonyl)-5,6,7,8-tetrahydro-1,5-naphthyridin-2-yl]propanamide]: the pIC50 was 7.78.
Take `Cc1c(C(=O)N2CCCc3cc(C4(C(=O)Nc5ccc(F)cc5)CCC4)ccc32)cnn1C` [Example 111, 1-[1-(1,5-dimethyl-1H-pyrazole-4-carbonyl)-1,2,3,4-tetrahydroquinolin-6-yl]-N-(4-fluorophenyl)cyclobutane-1-carboxamide]: the pIC50 was 7.18.
On the same count and under the same terms, under `CC(NC(=O)c1ccc(F)cc1)c1ccc2c(n1)CCCN2C(=O)C1COC1` (stereo not drawn) [Example 142, 4-fluoro-N-{1-[5-(oxetane-3-carbonyl)-5,6,7,8-tetrahydro-1,5-naphthyridin-2-yl]ethyl}benzamide] stands 5.81; under `CC(C)NC(=O)N1CCCc2nc([C@@H](C)C(=O)Nc3ccc(F)cc3)ccc21` [Example 217, 6-{(2R)-1-[(4-fluorophenyl)amino]-1-oxopropan-2-yl}-N-(propan-2-yl)-3,4-dihydro-1,5-naphthyridine-1(2H)-carboxamide], 7.61.
Still for that read-out and setting: next, `O=C(NC1(c2ccc3c(n2)CCCN3c2ccccn2)CC1)c1ccc(F)cc1` [Example 247, 4-fluoro-N-(1-(5-(pyridin-2-yl)-5,6,7,8-tetrahydro-1,5-naphthyridin-2-yl)cyclopropyl)benzamide]: 7.86.
Regarding `CCn1ccc(C(=O)N2CCCc3nc(C(C)NC(=O)c4ccc(F)cc4)ccc32)n1` (stereo in doubt) [Example 143, N-{(1R)-1-[5-(1-ethyl-1H-pyrazole-3-carbonyl)-5,6,7,8-tetrahydro-1,5-naphthyridin-2-yl]ethyl}-4-fluorobenzamide], the pIC50 was 7.94.
As to `COCCOCC(=O)N1CCCc2cc([C@H](C)C(=O)Nc3ccc(F)cc3)ccc21` [Example 77, (2S)-N-(4-fluorophenyl)-2-{1-[(2-methoxyethoxy)acetyl]-1,2,3,4-tetrahydroquinolin-6-yl}propanamide], the negative-log IC50 (pIC50) was 5.91.
`Cc1nc(C(=O)N2CCCc3cc(C(C)C(=O)Nc4ccc(F)cc4)ccc32)no1` (stereo not drawn) [Example 47, N-(4-fluorophenyl)-2-[1-(5-methyl-1,2,4-oxadiazole-3-carbonyl)-1,2,3,4-tetrahydroquinolin-6-yl]propanamide]: the negative-log IC50 (pIC50) is 8.47.
As to `CC(C)C(C(=O)Nc1ccc(F)cc1)c1ccc2c(n1)CCCN2C(=O)C1CC1` (stereo not drawn) [Example 264, 2-(5-(cyclopropanecarbonyl)-5,6,7,8-tetrahydro-1,5-naphthyridin-2-yl)-N-(4-fluorophenyl)-3-methylbutanamide], the negative-log IC50 (pIC50) is 7.51.
Still for that read-out and setting: next, `O=C(Nc1ccc(F)cc1)C1(c2ccc3c(n2)CCCN3c2ccnc(C(F)(F)F)n2)CCC1` [Example 407, N-(4-fluorophenyl)-1-(5-(2-(trifluoromethyl)pyrimidin-4-yl)-5,6,7,8-tetrahydro-1,5-naphthyridin-2-yl)cyclobutane-1-carboxamide]: 8.83; `CC(C)C(C(=O)Nc1ccc(F)cc1)c1ccc2c(n1)CCCN2C(=O)C1CC1` (stereo not drawn) [Example 265, 2-(5-(cyclopropanecarbonyl)-5,6,7,8-tetrahydro-1,5-naphthyridin-2-yl)-N-(4-fluorophenyl)-3-methylbutanamide]: 7.80.
Still for that read-out and setting: next, `O=C(NCc1ccc2c(c1)CCCN2C(=O)OCc1ccccc1)c1ccc(Cl)cc1` [Example 15, benzyl 6-((4-chlorobenzamido)methyl)-3,4-dihydroquinoline-1(2H)-carboxylate]: 7.43.

Staying with this assay, now noted: read-out: Hela IC50.
Regarding `CC(NC(=O)c1ccc(F)cc1)c1ccc2c(n1)CCCN2C(=O)OC(C)c1cccnc1` (stereo not drawn) [Example 318, 1-(pyridin-3-yl)ethyl 6-(1-(4-fluorobenzamido)ethyl)-3,4-dihydro-1,5-naphthyridine-1(2H)-carboxylate], the pIC50 was 7.70.
Still for that read-out and setting: next, `CC(NC(=O)c1ccc(F)cc1)c1ccc2c(n1)CCCN2C(=O)OCCn1ccnc1` (stereo not drawn) [Example 328, 2-(1H-imidazol-1-yl)ethyl 6-(1-(4-fluorobenzamido)ethyl)-3,4-dihydro-1,5-naphthyridine-1(2H)-carboxylate]: 6.32; `CC(NC(=O)c1ccc(F)cc1)c1ccc2c(n1)CCCN2C(=O)OC1CCCC1` (stereo not drawn) [Example 314, cyclopentyl 6-(1-(4-fluorobenzamido)ethyl)-3,4-dihydro-1,5-naphthyridine-1(2H)-carboxylate]: 9.19.
The same measure, in the same setting: next, `CC(NC(=O)c1ccc(F)cc1)c1ccc2c(n1)CCCN2C(=O)OCCCn1ccnc1` (stereo not drawn) [Example 325, 3-(1H-imidazol-1-yl)propyl 6-(1-(4-fluorobenzamido)ethyl)-3,4-dihydro-1,5-naphthyridine-1(2H)-carboxylate]: 5.89.
The same measure, in the same setting: next, `Cc1cc(N2CCCc3nc(C(C)NC(=O)c4ccc(Cl)cc4)ccc32)nc(C(F)(F)F)n1` (stereo not drawn) [Example 349, 4-chloro-N-(1-(5-(6-methyl-2-(trifluoromethyl)pyrimidin-4-yl)-5,6,7,8-tetrahydro-1,5-naphthyridin-2-yl)ethyl)benzamide]: 8.01.
